According to doi:10.1101/2024.08.25.609621 (bioRxiv, 2024):
Like-named read-outs stand apart in the source and are kept apart here.

Key:
[1] = target: SARS-CoV-2 NSP3 macrodomain (Mac1), P43 crystal form (Severe acute respiratory syndrome coronavirus 2, UniProt P0DTD1); format: binding; conditions: for binding by crystal soaking: P43 crystal form, repeated attempts, in words
[2] = target: SARS-CoV-2 NSP3 macrodomain (Mac1) (Severe acute respiratory syndrome coronavirus 2, UniProt P0DTD1); assay: biochemical; format: binding
[3] = ligand modeling in Mac1 crystal soak
[4] = stereoisomer(s) of ligand modeled in Mac1 crystal structure
[5] = Single dose, concentration 200 μM, read-out: SARS CoV-2 macrodomain HTRF assay: Average % competition
[6] = preliminary screen, compound at 200 μM, mean of 3-4 technical replicates, read-out: % competition in HTRF assay
[7] = Single dose, concentration 200 μM, read-out: Average % competition
[8] = ligand modeling in Mac1 crystal structure
[9] = stereoisomer(s) modeled in Mac1 crystal structure
[10] = dose-response, read-out: SARS CoV-2 macrodomain HTRF assay: IC50
[11] = dose-response, read-out: SARS CoV-2 macrodomain HTRF assay: Ki
[12] = from SARS CoV-2 macrodomain HTRF assay
[13] = Dose-response, SARS CoV-2 macrodomain HTRF assay, read-out: IC50
[14] = Single dose, 200 μM, mean of three technical replicates

Compound: CCC(C)(CO)Nc1ncnc2[nH]ccc12 (stereo not shown) [AVI-3697]
- Number of isomers bound [1, 3]: 1
- Ligand efficiency (binding enery per heavy atom) ([2]; SARS CoV-2 macrodomain HTRF assay): 0.39
- IC50 ([2]; SARS CoV-2 macrodomain HTRF assay, dose-response, read-out: IC50): 36 µM
- Ki ([2]; SARS CoV-2 macrodomain HTRF assay, dose-response, read-out: Ki): 34 µM

Compound: O=C(Nc1ccsc1C(=O)O)c1ccc2c(c1)OCO2 [AVI-316]
- Number of isomers bound [1, 3]: 1
- Isomers modeled [1, 4]: achiral

Compound: O=C(O)C(F)(F)F.OC[C@H]1CC2(CN1c1ncnc3[nH]ccc13)OCCO2 [AVI-3702]
- Number of isomers bound [1, 3]: 1
- PanDDA run, TFA/DMSO background map: 1-BDC ([1]; soak concentration 10 mM): 0.13
- PanDDA run, TFA/DMSO background map: Hit ([1]; soak concentration 10 mM): TRUE
- inhibition at 200 µM [2, 5]: 17%
- inhibition at 200 µM [2, 6]: 17%

Compound: CN1CCN(c2ncnc3[nH]ccc23)C(CO)C1 (stereo not shown) [AVI-3721]
- Number of isomers bound [1, 3]: 1
- Isomers modeled [1, 4]: R,R
- inhibition at 200 µM [2, 5]: 11%
- inhibition at 200 µM [2, 6]: 11%

Compound: OCC(Cc1nccs1)Nc1ncnc2[nH]ccc12 (stereo not shown) [AVI-3673]
- PanDDA run, TFA/DMSO background map: 1-BDC ([1]; crystal soak 10 mM): 0.15
- PanDDA run, TFA/DMSO background map: Hit ([1]; crystal soak 10 mM): TRUE
- Number of isomers bound [1, 3]: 1
- inhibition at 200 µM [2, 7]: 38%
- inhibition at 200 µM [2, 6]: 38%

Compound: Cc1c[nH]c2ncnc(NCC3(O)CCCCC3)c12 [AVI-3761, 1-(((5-methyl-7H-pyrrolo[2,3-d]pyrimidin-4-yl)amino)methyl)cyclohexan-1-ol]
- Isomers modeled [1]: achiral
- Number of isomers bound [1]: 1
- Ki [2]: 12 µM
- IC50 ([2]; HTRF IC50): 13 µM

Compound: Nc1ncc(Cl)cc1S(=O)(=O)N1CCCC(O)C1 (stereo not shown) [AVI-295]
- binding by crystal soaking [1]: failed to observe binding

Compound: O[C@H]1COC[C@@H]1Nc1ncnc2[nH]ccc12 [AVI-1444, (3R,4S)-4-((7H-pyrrolo[2,3-d]pyrimidin-4-yl)amino)tetrahydrofuran-3-ol]
- Number of isomers bound [1, 3]: 1

Compound: Cc1ccc2c(c1)CC[C@@H](C(=O)Nc1nnc3n1CCCC3)O2 [AVI-329]
- Number of isomers bound [1]: 1

Compound: Cc1c[nH]c2ncnc(NCC3(O)CCC(O)CC3)c12 (stereo not shown) [AVI-4329]
- Number of isomers bound [1, 8]: 1
- Isomers modeled [1, 9]: rr,rr

Compound: CC1(C)CCC(O)(CNc2ncnc3[nH]ccc23)CC1 [AVI-4310]
- IC50 [2, 10]: 76 µM
- Ki [2, 11]: 71 µM
- Ligand efficiency (binding enery per heavy atom) [2, 12]: 0.29

Compound: NC(=O)N1CCC[C@H]1C(=O)Nc1ccc2ncnn2c1 [AVI-330]
- Average % competition [2]: 14%

Compound: COc1ccc(-c2nccc(N3CCC(c4ccsc4)CC3)n2)cc1 [AVI-344]
- Average % competition [2]: <10%

Compound: CC(C(=O)NCc1c(C(=O)O)[nH]c2ccccc12)n1cncn1 (stereo not shown) [AVI-337]
- Average % competition [2]: 14%

Compound: O=C(O)c1ccc2c(c1)C(NC(=O)C1CCn3ncnc3C1)CCC2 (stereo not shown) [AVI-333]
- Average % competition [2]: 21%

Compound: Nc1cccc(CSC2CCc3ccccc32)n1 (stereo not shown) [AVI-6015]
- IC50 ([2]; read-out: IC50): > 1000 µM

Compound: O=C(O)C(F)(F)F.OCC(Nc1ncnc2[nH]ccc12)C(O)C1CCCCC1 (stereo not shown) [AVI-3687]
- inhibition at 200 µM [2, 7]: 33%
- inhibition at 200 µM [2, 6]: 33%

Compound: Cc1ccc2c(c1)C(=O)N(CCC(=O)Nc1cnc3c(c1)c(C)nn3C)C2=O [AVI-301]
- Average % competition [2]: 16%

Compound: Nc1nnc(SCCn2c(=O)oc3ccccc32)s1 [AVI-296]
- Isomers modeled [1]: achiral
- Number of isomers bound [1]: 1

Compound: CN(C)C[C@@]1(O)CCCN(c2ncnc3[nH]ccc23)C1 [AVI-614]
- inhibition at 200 µM [2, 7]: < 10%
- inhibition at 200 µM [2, 6]: < 10%

Compound: Nc1ncnc2sc3c(c12)CCN(C(=O)[C@H]1CC=CCC1)C3 [AVI-331]
- Average % competition [2]: <10%

Compound: OCC1(Nc2ncnc3[nH]ccc23)COC1 [AVI-5649]
- inhibition at 200 µM [2, 7]: < 10%
- inhibition at 200 µM [2, 6]: < 10%

Compound: O=C(O)C(F)(F)F.OCC(CC1CCOCC1)Nc1ncnc2[nH]ccc12 (stereo not shown) [AVI-3676]
- inhibition at 200 µM [2, 7]: < 10%
- inhibition at 200 µM [2, 6]: < 10%

Compound: Cc1nn(C)c2sc(C(=O)N3CC(C(=O)O)c4ccccc43)cc12 (stereo not shown) [AVI-327]
- Average % competition [2]: 0%

Compound: Nc1ncnc(N2CCC(C(F)(F)F)C3(CCC3)C2)c1Cl (stereo not shown) [AVI-324]
- Average % competition [2]: <10%

Compound: OCC1CCC2(CCOCC2)CN1c1ncnc2[nH]ccc12 (stereo not shown) [AVI-4065]
- IC50 [2, 10]: 430 µM
- Ki [2, 11]: 400 µM
- Ligand efficiency (binding enery per heavy atom) [2, 12]: 0.21

Compound: Cc1nc(-c2cccc(NC(=O)NCc3cccs3)c2)n[nH]1 [AVI-306]
- IC50 [2, 13]: > 1000 µM
- Average % competition [2, 14]: 20%

Compound: CC(C)(C)C1CCCN1c1ncnc2[nH]ccc12 (stereo not shown) [AVI-6000]
- Number of isomers bound [1, 8]: 1

Compound: O=C(O)C1CN(C(=O)c2ccc3c(c2)OCCO3)CCO1 (stereo not shown) [AVI-323]
- Average % competition [2]: 7%

Compound: CC(C)n1nnnc1SCc1c(C(=O)O)sc2cccc(F)c12 [AVI-291]
- Number of isomers bound [1, 8]: 1
- Isomers modeled [1, 9]: achiral

Compound: O[C@@]1(Cn2ccnn2)CCCN(c2ncnc3[nH]ccc23)C1 [AVI-608]
- inhibition at 200 µM [2, 7]: 8%
- inhibition at 200 µM [2, 6]: < 10%

Compound: O[C@H]1CNCC[C@@H]1Nc1ncnc2[nH]ccc12 [AVI-615]
- inhibition at 200 µM [2, 5]: < 10%
- inhibition at 200 µM [2, 6]: < 10%

Compound: O=C(O)C(F)(F)F.OCC(Nc1ncnc2[nH]ccc12)C1CCCO1 (stereo not shown) [AVI-3645]
- inhibition at 200 µM [2, 7]: 54%
- inhibition at 200 µM [2, 6]: 54%

Compound: Cc1ccc(CC(=O)N2CCSC23CC(C(=O)O)C3)cc1O (stereo not shown) [AVI-347]
- Average % competition [2]: <10%

Compound: CC(=O)Nc1ccc(NC(=O)CSc2nnnn2C2CCCC2)cc1 [AVI-315]
- Average % competition [2]: 0%

Compound: O=[N+]([O-])c1ccc(C(O)C(CO)Nc2ncnc3[nH]ccc23)cc1 (stereo not shown) [AVI-3672]
- inhibition at 200 µM [2, 7]: 43%
- inhibition at 200 µM [2, 6]: 43%

Compound: CC(Nc1ncnc2[nH]ccc12)C1(O)CCCCC1 (stereo not shown) [AVI-4321]
- IC50 [2, 10]: 48 µM
- Ki [2, 11]: 45 µM
- Ligand efficiency (binding enery per heavy atom) [2, 12]: 0.32

Compound: O=C(O)C(c1ccccc1)n1sc2ccccc2c1=O (stereo not shown) [AVI-288]
- Number of isomers bound [1, 8]: 1

Compound: Nc1ncnc(N2CCCCC3(CCC3)C2)c1Cl [AVI-6017]
- IC50 ([2]; read-out: IC50): > 1000 µM

Compound: Cc1ccc(N2CCN(c3ncnc(-c4ccccc4)n3)CC2=O)cc1 [AVI-336]
- Average % competition [2]: <10%

Compound: Cc1ccc(C)c(CN2C(=O)NC(C)(Cc3ccc4c(c3)OCO4)C2=O)c1 (stereo not shown) [AVI-320]
- Average % competition [2]: 18%

Compound: CCCC1CCCC1C(=O)N[C@H]1CCc2nc(N)sc2C1 (stereo partly shown) [AVI-298]
- Average % competition [2]: <10%

Compound: O=C(O)C1CN(C(=O)c2cccc3[nH]ccc23)c2ccccc21 (stereo not shown) [AVI-314]
- IC50 [2, 13]: > 1000 µM
- Average % competition [2, 14]: 32%

Compound: CC1(c2ccc(F)cc2)CN(C(=O)c2cnc(N)nc2C(F)(F)F)C1 [AVI-340]
- Average % competition [2]: 20%

Compound: c1ccn2c(Sc3ncnc4ccsc34)nnc2c1 [AVI-308]
- Average % competition [2]: 0%

Compound: COC1CCCN(S(=O)(=O)c2cc(Cl)cnc2N)C1 (stereo not shown) [AVI-290]
- binding by crystal soaking [1]: failed to observe binding

Compound: CC1CCCC1OC(=O)Cn1cnc2c1c(=O)n(C)c(=O)n2C (stereo not shown) [AVI-335]
- Average % competition [2]: <10%

Compound: CC(NC(=O)c1ccc(N)nc1Cl)C(O)c1cccc(F)c1 (stereo not shown) [AVI-349]
- Average % competition [2]: 15%

Compound: CC(OC(=O)c1ccc2nc(N)sc2c1)C(=O)N1CCCCCC1 (stereo not shown) [AVI-304]
- Average % competition [2]: 0%

Compound: CC(C)(C)C(O)CC(CO)Nc1ncnc2[nH]ccc12.O=C(O)C(F)(F)F (stereo not shown) [AVI-3714]
- inhibition at 200 µM [2, 7]: < 10%
- inhibition at 200 µM [2, 6]: < 10%

Compound: O=C(O)C(F)(F)F.OCC1C2C=CC(C2)N1c1ncnc2[nH]ccc12 (stereo not shown) [AVI-3712]
- inhibition at 200 µM [2, 5]: 55%
- inhibition at 200 µM [2, 6]: 55%

Compound: CCOc1ccc(-c2nc(CC(=O)N3CCn4cccc4C3C)cs2)cc1 (stereo not shown) [AVI-325]
- Average % competition [2]: 0%

Compound: c1ccc(-n2nnnc2CSc2nnc(NC3CC3)s2)cc1 [AVI-286]
- Isomers modeled [1]: achiral
- Number of isomers bound [1]: 1

Compound: O=C(c1cc(C2CCCCC2)[nH]n1)N1CCCC(O)(C(F)(F)F)CC1 (stereo not shown) [AVI-318]
- Average % competition [2]: 13%

Compound: O=C(O)C(F)(F)F.OC[C@@H](CCc1ccccc1)Nc1ncnc2[nH]ccc12 [AVI-3654]
- inhibition at 200 µM [2, 7]: 27%
- inhibition at 200 µM [2, 6]: 27%

Compound: Cn1ccc2cc(NC(=O)C3CC(=O)NC4CCCCC43)ccc21 (stereo not shown) [AVI-342]
- Average % competition [2]: <10%
